# In ChEMBL document CHEMBL3399999, “Anti-trypanosomal cadinanes synthesized by transannular cyclization of the natural sesquiterpene lactone nobilin” (Bioorg Med Chem, 2015):
# Assays:
# [1] = Selectivity index, ratio of IC50 for rat L6 cells to IC50 for bloodstream forms of Trypanosoma brucei rhodesiense STIB 900; format: toxicity, cell-based; conditions: read-out: Ratio IC50
# [2] = tested on: L6; assay: Cytotoxicity against rat L6 cells; format: cell-based
# [3] = tested on: Trypanosoma brucei rhodesiense; assay: Antiprotozoal activity against bloodstream forms of Trypanosoma brucei rhodesiense STIB 900 after 70 hrs by Alamar blue assay; format: functional, organism-based; conditions: STIB 900, 70 h
SMILES,selectivity ratio [1],IC50 [2],IC50 [3]
C=C(C(=O)O)[C@H]1[C@@H]2C=C(C)[C@@H](O)C[C@H]2[C@](C)(O)C[C@@H]1OC(=O)/C(C)=C\C,> 2,> 100 µM,50.5 µM
"C=C1C(=O)OC2/C=C(/C)[C@@H](O)C/C=C(\C)C[C@H](OC(=O)/C(C)=C/C)[C@@H]12 (single isomer, unassigned)",2.9,10.2 µM,3.48 µM
C=C1C(=O)O[C@]23C=C(C)[C@@H](O)C[C@@H]2[C@H](C)C[C@H](OC(=O)/C(C)=C\C)[C@@H]13,1.5,2.12 µM,1.44 µM
C=C(C(=O)O)[C@H]1[C@@H]2C=C(C)C(=O)C[C@@H]2[C@@H](C)C[C@@H]1OC(=O)/C(C)=C\C,1.6,49.1 µM,31.1 µM
C=C1C(=O)O[C@@]23C=C(C)[C@@H](O)C[C@@H]2[C@@H](C)C[C@H](OC(=O)/C(C)=C\C)[C@@H]13,2.4,1.11 µM,0.46 µM
C=C1C(=O)O[C@@H]2/C=C(/C)[C@@H](O)C/C=C(\C)C[C@H](OC(=O)/C(C)=C\C)[C@@H]12 [NOBILIN],2.1,6.64 µM,3.19 µM
Nc1nc(N)nc(Nc2ccc([As]3SCC(CO)S3)cc2)n1 (stereo unspecified) [MELARSOPROL],> 5000,29.1 µM,
C=C(C(=O)O)[C@H]1[C@@H]2C=C(C)[C@@H](O)C[C@@H]2[C@](C)(O)C[C@@H]1OC(=O)/C(C)=C\C,3.3,49 µM,14.8 µM
"C=C(C)C(=O)O[C@H]1C/C(C)=C/C[C@H](O)/C(C)=C\C2OC(=O)C(=C)[C@@H]21 (single isomer, unassigned)",6.1,9.38 µM,1.54 µM
